Legend:
Type in all cases: in vivo
[1] = test system: Seedling johnsongrass; test: Post-emergence herbicide test; conditions: Sorghum halepense, read-out: % plant inhibition (Sejg); for inhibition at 1120 g/ha: 1.12 kg/ha; for inhibition at 11210 g/ha: 11.21 kg/ha
Method in brief: (§1)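 Soil pans, sub-irrigated; plants sprayed at 2–3 wk; 170.3 kPa atomizer; 1870 L/Ha; ~0.4% v/v emulsifier; % inhibition vs control ~11 d post-spray, sometimes ~25 d.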

[2] = test system: Velvetleaf; test: Post-emergence herbicide test; conditions: Abutilon theophrasti, read-out: % plant inhibition (Vele); for inhibition at 1120 g/ha: 1.12 kg/ha; for inhibition at 11210 g/ha: 11.21 kg/ha
Method in brief: as §1

[3] = test system: Morningglory; test: Post-emergence herbicide test; conditions: Ipomoea, read-out: % plant inhibition (Mogl); for inhibition at 1120 g/ha: 1.12 kg/ha; for inhibition at 11210 g/ha: 11.21 kg/ha
Method in brief: as §1

[4] = test system: Barnyardgrass; test: Post-emergence herbicide test; conditions: Echinochloa crus-galli, read-out: % plant inhibition (Bygr); for inhibition at 1120 g/ha: 1.12 kg/ha; for inhibition at 11210 g/ha: 11.21 kg/ha
Method in brief: as §1

[5] = test system: Cocklebur; test: Post-emergence herbicide test; conditions: Xanthium strumarium, read-out: % plant inhibition (Cobu); for inhibition at 1120 g/ha: 1.12 kg/ha; for inhibition at 11210 g/ha: 11.21 kg/ha
Method in brief: as §1

[6] = test system: Yellow nutsedge; test: Post-emergence herbicide test; conditions: Cyperus, read-out: % plant inhibition (Yens); for inhibition at 1120 g/ha: 1.12 kg/ha; for inhibition at 11210 g/ha: 11.21 kg/ha
Method in brief: as §1

[7] = test system: Downy Brome; test: Post-emergence herbicide test; conditions: Bromus tectorum, read-out: % plant inhibition (Dobr); for inhibition at 1120 g/ha: 1.12 kg/ha; for inhibition at 11210 g/ha: 11.21 kg/ha
Method in brief: as §1

[8] = test system: Indian Mustard; test: Post-emergence herbicide test; conditions: Brassica juncea, read-out: % plant inhibition (Inmu); for inhibition at 1120 g/ha: 1.12 kg/ha; for inhibition at 11210 g/ha: 11.21 kg/ha
Method in brief: as §1

[9] = test system: Annual bluegrass; test: Post-emergence herbicide test; conditions: read-out: % plant inhibition (Anbg); for inhibition at 1120 g/ha: 1.12 kg/ha; for inhibition at 11210 g/ha: 11.21 kg/ha
Method in brief: as §1

[10] = test system: Wild buckwheat; test: Post-emergence herbicide test; conditions: Fallopia convolvulus, read-out: % plant inhibition (Wibw); for inhibition at 1120 g/ha: 1.12 kg/ha; for inhibition at 11210 g/ha: 11.21 kg/ha
Method in brief: as §1

[11] = test system: Seedling johnsongrass; test: Pre-emergence herbicide test; conditions: Sorghum halepense, read-out: % plant inhibition (Sejg); for inhibition at 1120 g/ha: 1.12 kg/ha; for inhibition at 11210 g/ha: 11.21 kg/ha
Method in brief: (§2)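 Sow seeds on compacted topsoil; apply compound in acetone/water to seed bed; cover with untreated topsoil; grow in greenhouse with bottom watering; score % inhibition at 10-14 days.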

[12] = test system: Velvetleaf; test: Pre-emergence herbicide test; conditions: Abutilon theophrasti, read-out: % plant inhibition (Vele); for inhibition at 1120 g/ha: 1.12 kg/ha; for inhibition at 11210 g/ha: 11.21 kg/ha
Method in brief: as §2

[13] = test system: Morningglory; test: Pre-emergence herbicide test; conditions: Ipomoea, read-out: % plant inhibition (Mogl); for inhibition at 1120 g/ha: 1.12 kg/ha; for inhibition at 11210 g/ha: 11.21 kg/ha
Method in brief: as §2

[14] = test system: Barnyardgrass; test: Pre-emergence herbicide test; conditions: Echinochloa crus-galli, read-out: % plant inhibition (Bygr); for inhibition at 1120 g/ha: 1.12 kg/ha; for inhibition at 11210 g/ha: 11.21 kg/ha
Method in brief: as §2

[15] = test system: Cocklebur; test: Pre-emergence herbicide test; conditions: Xanthium strumarium, read-out: % plant inhibition (Cobu); for inhibition at 1120 g/ha: 1.12 kg/ha; for inhibition at 11210 g/ha: 11.21 kg/ha
Method in brief: as §2

[16] = test system: Yellow nutsedge; test: Pre-emergence herbicide test; conditions: Cyperus, read-out: % plant inhibition (Yens); for inhibition at 1120 g/ha: 1.12 kg/ha; for inhibition at 11210 g/ha: 11.21 kg/ha
Method in brief: as §2

[17] = test system: Downy Brome; test: Pre-emergence herbicide test; conditions: Bromus tectorum, read-out: % plant inhibition (Dobr); for inhibition at 1120 g/ha: 1.12 kg/ha; for inhibition at 11210 g/ha: 11.21 kg/ha
Method in brief: as §2

[18] = test system: Indian Mustard; test: Pre-emergence herbicide test; conditions: Brassica juncea, read-out: % plant inhibition (Inmu); for inhibition at 1120 g/ha: 1.12 kg/ha; for inhibition at 11210 g/ha: 11.21 kg/ha
Method in brief: as §2

[19] = test system: Annual bluegrass; test: Pre-emergence herbicide test; conditions: read-out: % plant inhibition (Anbg); for inhibition at 1120 g/ha: 1.12 kg/ha; for inhibition at 11210 g/ha: 11.21 kg/ha
Method in brief: as §2

[20] = test system: Wild buckwheat; test: Pre-emergence herbicide test; conditions: Fallopia convolvulus, read-out: % plant inhibition (Wibw); for inhibition at 1120 g/ha: 1.12 kg/ha; for inhibition at 11210 g/ha: 11.21 kg/ha
Method in brief: as §2

SMILES	inhibition at 1120 g/ha [1] [%]	inhibition at 1120 g/ha [2] [%]	inhibition at 1120 g/ha [3] [%]	inhibition at 1120 g/ha [4] [%]	inhibition at 1120 g/ha [5] [%]	inhibition at 1120 g/ha [6] [%]	inhibition at 1120 g/ha [7] [%]	inhibition at 1120 g/ha [8] [%]	inhibition at 1120 g/ha [9] [%]	inhibition at 1120 g/ha [10] [%]	inhibition at 1120 g/ha [11] [%]	inhibition at 1120 g/ha [12] [%]	inhibition at 1120 g/ha [13] [%]	inhibition at 1120 g/ha [14] [%]	inhibition at 1120 g/ha [15] [%]	inhibition at 1120 g/ha [16] [%]	inhibition at 1120 g/ha [17] [%]	inhibition at 1120 g/ha [18] [%]	inhibition at 1120 g/ha [19] [%]	inhibition at 1120 g/ha [20] [%]	other results
Cc1cc(-c2nn(C)c(C(F)(F)F)c2Br)c(F)cc1Cl [Compound 125]	0	100	30	0	40	0	0	30	20	100	100	100	90	100	30	0	90	100	100	100	–
Cn1nc(-c2cc(Oc3ccc(C(F)(F)F)cc3Cl)c(Cl)cc2F)c(Cl)c1C(F)(F)F [Compound 203]	–	–	–	–	–	–	–	–	–	–	–	–	–	–	–	–	–	–	–	–	inhibition at 11210 g/ha [1]: 60%; inhibition at 11210 g/ha [2]: 100%; inhibition at 11210 g/ha [3]: 60%; inhibition at 11210 g/ha [4]: 50%; inhibition at 11210 g/ha [5]: 60%; inhibition at 11210 g/ha [6]: 0%; inhibition at 11210 g/ha [7]: 30%; inhibition at 11210 g/ha [8]: 60%; inhibition at 11210 g/ha [9]: 20%; inhibition at 11210 g/ha [10]: 90%; inhibition at 11210 g/ha [11]: 20%; inhibition at 11210 g/ha [12]: 0%; inhibition at 11210 g/ha [13]: 10%; inhibition at 11210 g/ha [14]: 0%; inhibition at 11210 g/ha [15]: 20%; inhibition at 11210 g/ha [16]: 0%; inhibition at 11210 g/ha [17]: 10%; inhibition at 11210 g/ha [18]: 0%; inhibition at 11210 g/ha [19]: 0%; inhibition at 11210 g/ha [20]: 0%
Cn1nc(-c2cc(N(S(C)(=O)=O)S(C)(=O)=O)c(Cl)cc2Cl)c(Cl)c1C(F)(F)F [Compound 87]	–	–	–	–	–	–	–	–	–	–	–	–	–	–	–	–	–	–	–	–	inhibition at 11210 g/ha [1]: 40%; inhibition at 11210 g/ha [2]: 100%; inhibition at 11210 g/ha [3]: 70%; inhibition at 11210 g/ha [4]: 20%; inhibition at 11210 g/ha [5]: 50%; inhibition at 11210 g/ha [6]: 10%; inhibition at 11210 g/ha [7]: 0%; inhibition at 11210 g/ha [8]: 30%; inhibition at 11210 g/ha [9]: 10%; inhibition at 11210 g/ha [10]: 40%; inhibition at 11210 g/ha [11]: 30%; inhibition at 11210 g/ha [12]: 90%; inhibition at 11210 g/ha [13]: 70%; inhibition at 11210 g/ha [14]: 40%; inhibition at 11210 g/ha [15]: 10%; inhibition at 11210 g/ha [16]: 10%; inhibition at 11210 g/ha [17]: 20%; inhibition at 11210 g/ha [18]: 70%; inhibition at 11210 g/ha [19]: 10%; inhibition at 11210 g/ha [20]: 90%
Cc1cc(-c2nn(C)c(C(F)F)c2Cl)c(F)cc1Cl [Compound 126]	30	90	60	50	30	10	0	40	40	80	100	100	100	100	50	0	100	100	100	100	–
CC(=NOCC(N)=O)c1cc(-c2nn(C)c(C(F)(F)F)c2Cl)c(F)cc1Cl [Compound 105]	20	80	40	20	20	20	0	30	30	100	60	90	80	70	10	20	40	80	0	80	–
CCC(C)COC(=O)c1cc(-c2nn(C)c(C(F)(F)F)c2Cl)c(F)cc1Cl (centres unmarked) [Compound 140]	100	100	100	100	100	10	100	90	100	90	70	90	70	0	80	0	60	70	30	70	–
Cn1nc(-c2cc(O)c(Br)cc2F)c(Cl)c1C(F)(F)F [Compound 95]	50	100	80	80	100	10	40	70	60	100	50	90	40	50	20	20	20	80	30	100	–
CC(=O)OCc1cc(-c2nn(C)c(C(F)(F)F)c2Cl)c(F)cc1Cl [Compound 121]	–	–	–	–	–	–	–	–	–	–	–	–	–	–	–	–	–	–	–	–	inhibition at 11210 g/ha [1]: 90%; inhibition at 11210 g/ha [2]: 100%; inhibition at 11210 g/ha [3]: 100%; inhibition at 11210 g/ha [4]: 100%; inhibition at 11210 g/ha [5]: 90%; inhibition at 11210 g/ha [6]: 20%; inhibition at 11210 g/ha [7]: 90%; inhibition at 11210 g/ha [8]: 90%; inhibition at 11210 g/ha [9]: 40%; inhibition at 11210 g/ha [10]: 100%; inhibition at 11210 g/ha [11]: 80%; inhibition at 11210 g/ha [12]: 100%; inhibition at 11210 g/ha [13]: 100%; inhibition at 11210 g/ha [14]: 100%; inhibition at 11210 g/ha [15]: 60%; inhibition at 11210 g/ha [16]: 70%; inhibition at 11210 g/ha [17]: 70%; inhibition at 11210 g/ha [18]: 100%; inhibition at 11210 g/ha [19]: 100%; inhibition at 11210 g/ha [20]: 100%
Cn1nc(-c2cc(C=O)c(Cl)cc2F)c(Cl)c1C(F)(F)F [Compound 133, 2-chloro-5-[4-chloro-1-methyl-5-(trifluoromethyl)-1H-pyrazol-3-yl]-4-fluorobenzaldehyde]	50	100	100	50	100	40	20	40	0	80	80	100	70	80	40	20	0	100	20	70	–
COc1cc(F)c(-c2c(Cl)c(C(F)(F)F)nn2C)cc1F [Compound 71]	–	–	–	–	–	–	–	–	–	–	–	–	–	–	–	–	–	–	–	–	inhibition at 11210 g/ha [1]: 0%; inhibition at 11210 g/ha [2]: 20%; inhibition at 11210 g/ha [3]: 20%; inhibition at 11210 g/ha [4]: 0%; inhibition at 11210 g/ha [5]: 30%; inhibition at 11210 g/ha [6]: 0%; inhibition at 11210 g/ha [7]: 0%; inhibition at 11210 g/ha [8]: 20%; inhibition at 11210 g/ha [9]: 0%; inhibition at 11210 g/ha [10]: 40%; inhibition at 11210 g/ha [11]: 40%; inhibition at 11210 g/ha [12]: 60%; inhibition at 11210 g/ha [13]: 30%; inhibition at 11210 g/ha [14]: 0%; inhibition at 11210 g/ha [15]: 0%; inhibition at 11210 g/ha [16]: 0%; inhibition at 11210 g/ha [17]: 10%; inhibition at 11210 g/ha [18]: 30%; inhibition at 11210 g/ha [19]: 90%; inhibition at 11210 g/ha [20]: 70%
